Assay type in all cases: biochemical
One experiment addresses T1, cMAGL (Macaca fascicularis, UniProt A0A2K5V664).
T1 sequence (A0A2K5V664 11-297): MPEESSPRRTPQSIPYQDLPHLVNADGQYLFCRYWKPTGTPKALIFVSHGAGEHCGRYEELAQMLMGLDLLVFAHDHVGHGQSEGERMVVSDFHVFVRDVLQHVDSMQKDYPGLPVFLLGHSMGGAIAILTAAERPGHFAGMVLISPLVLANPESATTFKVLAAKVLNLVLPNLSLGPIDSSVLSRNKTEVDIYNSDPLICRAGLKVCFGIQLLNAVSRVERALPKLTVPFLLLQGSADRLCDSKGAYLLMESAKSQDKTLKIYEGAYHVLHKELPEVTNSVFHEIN
Put plainly: Native MS (RapidFire) 2-AG substrate assay, purified cynomolgus monkey MAGL. As for the experimental part:
(§1) In vitro MAGL Inhibition Assay
(§2) Compounds were profiled for MAGL inhibitory activity by determining the enzymatic activity by following the hydrolysis of the natural substrate 2-arachidonoylglycerol (2-AG), resulting in arachidonic acid, which can be followed by mass spectrometry. The 2-AG assay was carried out in 384 well assay plates (PP, Greiner Cat# 784201) in a total volume of 20 µL. Compound dilutions were made in 100% DMSO (VWR Chemicals 23500.297) in a polypropylene plate in 3-fold dilution steps to give a final concentration range in the assay from 12.5 µM to 0.8 pM. 0.25µL compound dilutions (100% DMSO) were added to 9 µL MAGL in assay buffer (50 mM TRIS (GIBCO, 15567-027), 1 mM EDTA (Fluka, 03690-100 mL), 0.01% (v/v) Tween. After shaking, the plate was incubated for 15 min at RT. To start the reaction, 10 µL 2-arachidonoylglycerol in assay buffer was added. The final concentrations in the assay were 50 pM MAGL and 8 µM 2-arachidonoylglyerol. After shaking and 30 min incubation at RT, the reaction was quenched by the addition of 40µL of ACN containing 4µM of d8-arachidonic acid. The amount of arachidonic acid was traced by an online SPE system (Agilent Rapidfire) coupled to a triple quadrupole mass spectrometer (Agilent 6460). A C18 SPE cartridge (G9205A) was used in an ACN/water liquid setup. The mass spectrometer was operated in negative electrospray mode following the mass transitions 303.1 → 259.1 for arachidonic acid and 311.1 → 267.0 for d8-arachidonic acid. The activity of the compounds was calculated based on the ratio of intensities [arachidonic acid / d8-arachidonic acid]. The lowest IC50 value that can be determined with high accuracy is approximately 0.025 nM.

The target of another experiment is T2, mMAGL (Mus musculus, UniProt O35678).
T2 sequence (O35678 1-303): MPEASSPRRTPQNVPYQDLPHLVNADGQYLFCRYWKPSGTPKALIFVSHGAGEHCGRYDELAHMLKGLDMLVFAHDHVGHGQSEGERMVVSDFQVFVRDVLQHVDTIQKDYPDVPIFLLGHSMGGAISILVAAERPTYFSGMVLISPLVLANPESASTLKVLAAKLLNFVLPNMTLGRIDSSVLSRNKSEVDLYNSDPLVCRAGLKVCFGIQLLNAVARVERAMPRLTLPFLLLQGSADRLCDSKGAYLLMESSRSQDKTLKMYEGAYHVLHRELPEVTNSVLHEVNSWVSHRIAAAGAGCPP
Put plainly: Native MS (RapidFire) 2-AG substrate assay, purified mouse MAGL. Particulars: purified mouse MAGL, native MS substrate assay; read-out: IC50 mMAGL. As for the experimental part: as §1, §2

The target in the next experiment is T3, MAGL (Homo sapiens, UniProt Q99685).
T3 sequence (Q99685 1-303): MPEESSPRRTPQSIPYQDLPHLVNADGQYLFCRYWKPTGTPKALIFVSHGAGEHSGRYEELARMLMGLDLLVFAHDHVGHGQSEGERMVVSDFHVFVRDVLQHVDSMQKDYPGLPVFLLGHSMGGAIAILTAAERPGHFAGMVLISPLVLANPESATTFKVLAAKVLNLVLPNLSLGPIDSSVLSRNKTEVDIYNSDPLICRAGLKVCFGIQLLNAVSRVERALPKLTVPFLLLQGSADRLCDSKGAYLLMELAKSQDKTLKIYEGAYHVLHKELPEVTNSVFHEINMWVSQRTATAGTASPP
In words: Native MS (RapidFire) 2-AG substrate assay, purified human MAGL. Conditions: purified human MAGL, native MS substrate assay; IC50 of covalent inhibitors time-dependent; read-out: IC50 hMAGL. On the procedure: as §1, §2

Where [1] appears, read: purified cynomolgus monkey MAGL, native MS substrate assay, read-out: IC50 cMAGL.

Structures are written as SMILES. Where two headings read alike, the source gives them in different places.

The IC50 is the concentration that gives 50% inhibition. On to `O=C(O[C@H](CO)C(F)(F)F)N1CC2(CC(CC3=C4C=CC=[N+]4[B-](F)(F)n4cccc43)C2)C1` [Compound 1], for which the 50% inhibitory concentration (IC50) on cMAGL (setting [1]) is 0.87 nM; on mMAGL it was 0.21 nM; at MAGL, 0.28 nM.

With `O=C1CO[C@H]2CCN(C(=O)N3CC4(CC(CC5=C6C=CC(c7ccc[nH]7)=[N+]6[B-](F)(F)n6cccc65)C4)C3)C[C@H]2N1` [Compound 4a], the values for the half-inhibitory concentration (IC50) at cMAGL, on mMAGL and at MAGL were 0.2 nM, 0.18 nM and 0.14 nM, respectively.

As to `O=C(OC(C(F)(F)F)C(F)(F)F)N1CC2(CC(CC3=C4C=CC=[N+]4[B-](F)(F)n4cccc43)C2)C1` [Compound 2], the half-maximal inhibitory concentration (IC50) at cMAGL (setting [1]) is 0.24 nM; at mMAGL it was 0.33 nM; at MAGL it was 0.39 nM.

Regarding `O=C(N1CC2(CC(CC3=C4C=CC=[N+]4[B-](F)(F)n4cccc43)C2)C1)N1CC2(CC(n3cnc(C4CC4)n3)C2)C1` [Compound 5], the IC50 on cMAGL is 0.5 nM; at mMAGL it was 1.03 nM; on MAGL, 0.58 nM.

In the case of `O=C(OC(C(F)(F)F)C(F)(F)F)N1CC2(CC(CC3=C4C=CC(c5ccc[nH]5)=[N+]4[B-](F)(F)n4cccc43)C2)C1` [Compound 2a], the IC50 at cMAGL (setting [1]) is 0.63 nM; at mMAGL it was 0.79 nM; on MAGL, 0.98 nM.

Regarding `O=C1CO[C@H]2CCN(C(=O)N3CC4(CC(CC5=C6C=CC=[N+]6[B-](F)(F)n6cccc65)C4)C3)C[C@H]2N1` [Compound 4], the half-maximal inhibitory concentration (IC50) at cMAGL (setting [1]) is 1.14 nM; at mMAGL, 1.33 nM; on MAGL it was 0.94 nM.

The values are drawn from article PMC11951083, “Highly Specific Miniaturized Fluorescent Monoacylglycerol Lipase Probes Enable Translational Research” (Journal of the American Chemical Society, 2025).
